Measurements from publication PMC6770473, “Proximity ligation assay to study protein–protein interactions of proteins on two different cells” (Biotechniques, 2018).
“Also recorded” adds a separate entry of the source.

Legend:
[1] = test system: CD58 on the cell surface of HFLS-RA cells; experiment: Binding of SFTI-a BODIPY conjugate to HFLS-RA cells (fluorescence microscopy); assay type: cell-based, human; settings: green fluorescence of BODIPY, Mg+ green filter (excitation 507, emission 531), 60x, concentration not given
Method: Synthesis of cyclic peptide SFTI-a, Cyclo(CKASAPPSCYDGDD), was carried out in three major steps: 1) Linear sequence synthesis with an automatic peptide synthesizer (Protein Technologies, Inc., AZ, USA); 2) head-to-tail cyclization; and 3) disulfide bond formation. For fluorescent labeling of peptide SFTI-a, Lys in the peptide sequence was replaced with Lys containing an azide side chain. The azide side chain was used to conjugate fluorescent label 4,4-difluoro-4-bora-3a,4a-diaza-s-indacene (BODIPY), resulting in the conjugate Cyclo(CK-(BODIPY)-ASAPPSCYDGDD). The detailed procedure for synthesis of the peptide is described in our previous work. Peptides SFTI-a and SFTI-a with lysine azide (N3) and fluorescence-labeled SFTI-a were purified by preparative HPLC (Waters Corp., MA, USA) using acetonitrile and water containing 0.1% TFA. Molecular weights of the synthesized peptide and the conjugate were confirmed by mass spectrometry. BODIPY was obtained from Dr Vicente, Department of Chemistry, Louisiana State University, LA, USA.
(§1) • Both T cells and HFLS-RA cells were grown to 70% confluency. • Approximately 20,000 Jurkat cells were added to each well, and the chamber slides were incubated for 30 min at 37°C with 5% CO2. • Approximately 10,000 HFLS-RA cells were treated with different concentrations of SFTI-a peptide separately for 2 h at 4°C and added over Jurkat cells that were previously coated onto the well chamber slides. • The slides were incubated for 48 h at 37°C with 5% CO2.
The microscopic visualization was carried out on an Olympus Fluoview FV10i confocal microscope. DAPI (excitation 359, emission 461) and Texas Red (excitation 595, emission 612) filters were used for detection purposes at 60x zoom. For SFTI-a BODIPY conjugate, a Mg+ green (excitation 507, emission 531) filter was used. Different images were taken from each well containing different concentrations of SFTI-a and cells only. All images were taken in a single plane and at 60x magnification.

[2] = test system: CD2–CD58 interaction; experiment: Proximity ligation assay (PLA), Jurkat T cells / HFLS-RA cells co-culture; assay type: cell-based, human; settings: for PPI inhibition by BODIPY conjugate (red fluorescence): BODIPY conjugate of SFTI-a, concentration not printed, compared to control without any peptide; for reduction in number of red dots: compared with control, p < 0.001; for PPI inhibition, number of red dots (ImageJ): vs untreated wells, p < 0.0001 (SAS, GLM)
Method: as §1
• The medium was gently removed from the corners of the wells. • Enough chilled methanol to cover the surface was added to each well for fixing the cells. • After incubating the slides for 15 min at −20°C, the methanol was removed, and PBS was used to hydrate the slides. • The slides were washed once more with PBS. • Two drops of blocking solution was added to each well, and they were incubated for 90 min at room temperature in a moist chamber.
• The blocking solution was removed, and the slides were washed gently with PBS. • The CD58 and CD2 (Santa Cruz Biotechnology) primary antibodies were used at a dilution of […] by diluting with antibody diluent solution provided in kit (2 μl [CD58 Ab] + 2 μl [CD2 Ab] + 196 μl antibody diluent solution per well). • After addition of primary antibody solution, the slides were incubated overnight at 4°C in a moist chamber with gentle shaking.
• The primary antibody solution was removed, and each well was washed very gently with 100 μl of PBS. • The probe solution was prepared using 1:1:4 ratio of positive probe:negative probe:antibody diluent solution, respectively. • After removing PBS, approximately 80 μl of probe solution was added to each well, which were incubated at 37°C for 1 h in a moist chamber.
• The probe solution was discarded, and all wells were washed twice with 100 μl of wash buffer A. • Ligase solution was prepared by mixing together 16 μl of ligation solution + 2 μl of ligase + 62 μl of high purified water. • 80 μl of this freshly prepared ligase solution was added gently to each well, which were incubated at 37°C for 30 min in a moist chamber.
• All procedures from this step forward were carried out in a dark (light-protected) environment. • After removing the ligase solution, the wells were washed gently twice with wash buffer A. • Amplification/polymerase solution was prepared by mixing together 1 μl polymerase + 16 μl amplification (red) solution + 63 μl purified water. • 80 μl of the above solution was added to each well in the dark, and the plates were incubated in a 37°C moist chamber in the dark for 100 min.
• Amplification/polymerase solution was removed from each well, and they were washed gently twice with 120 μl of wash buffer B. • 0.01x wash buffer B (in phosphate-buffered saline [PBS]) was prepared, and each well was washed with this solution. • The well on slides were removed (wells are removed after all the washing step to prepare the slide for microscopic imaging). • Keeping the slide surface slightly wet with 0.01x wash buffer B, a small amount of mounting medium with DAPI solution was added to the slide. • Coverslips were placed over the slides, and images were obtained by using an Olympus Fluoview 1.0 confocal microscope with DAPI and Texas Red filters.
Wash buffers A and B were provided in the kit. The composition of the buffers is not disclosed by the vendor. A bio-protocol by Lin et al. provides the composition of Duolink in situ buffers A and B. The incubation time of 48 h was established by carrying out PLA at 24- and 48-h times.
Control experiments were conducted with HFLS-RA cells and T cells without addition of primary antibodies to CD2 and CD58 but with addition of secondary antibodies and PLA probes. Experiments were performed as described in steps 1–7 above.
Experiments with HFLS-RA cells and T cells were carried out as described above by adding primary and secondary antibodies only to CD58 and with PLA probes. […]

[3] = test system: CD58 protein; settings: cited from earlier work
Text: (§2) In almost all physiological processes, the medium for communication between two cells is facilitated by the interaction of proteins. The up- or down-regulation of proteins and the deregulated interaction of these proteins usually lead to disease conditions. Rational drug designs targeting these protein–protein interactions (PPI) have gained much popularity in the past decade. […] Many proteins interact at the cell surface to send signals inside the cell from the extracellular region, and PPI on the cell surface are targ ...

[4] = test system: CD2–CD58 interaction; settings: cited from earlier work
Text: as §2

[5] = test system: cell adhesion in the immune response; settings: cell-based in vitro and ex vivo assays; cited from earlier work
Text: as §2

[6] = molecular target: CD58 adhesion domain; settings: relatively weak but highly specific interaction; background statement, reference printed only at the preceding sentence; read-out: Kd of CD2–CD58 interaction; cited from earlier work
Text: as §2

[7] = listed as BODIPY conjugate of SFTI-a

Molecule: Cyclo(CK-(BODIPY)-ASAPPSCYDGDD) (bicyclic or more) [SFTI-a conjugate, fluorescently labeled peptide with BODIPY attachment via azide side chain of Lys]
- binding to CD58 on HFLS-RA cell surface [1]: bound to the cell surface of HFLS-RA cells as shown by green fluorescence of BODIPY
- binding to CD58 on HFLS-RA cell surface [1, 7]: green fluorescence on HFLS-RA cells due to binding of a conjugate of SFTI-a to CD58 on cells
- PPI inhibition by BODIPY conjugate (red fluorescence) [2]: inhibit the interaction between Jurkat cells and HFLS-RA cells
- PPI inhibition by BODIPY conjugate (red fluorescence) [2, 7]: able to inhibit PPI as shown by a decrease in red fluorescence compared to control

Molecule: Cyclo(CKASAPPSCYDGDD) (bicyclic or more) [SFTI-a]
- binding to CD58 on HFLS-RA cell surface [1]: bind to CD58 on the cell surface
- binding to CD58 [3]: binds to the CD58 protein
- inhibition of CD2–CD58 interaction [4]: inhibits CD2–CD58 interaction
- inhibition of cell adhesion in the immune response, suppression of T-cell immune response [5]: potent compound for inhibiting cell adhesion in the immune response
- reduction in number of red dots ([2]; 50 nM SFTI-a): significant reduction in a number of red dots
- reduction in number of red dots ([2]; 250 nM SFTI-a): significant reduction in a number of red dots
- PPI inhibition, number of red dots (ImageJ) ([2]; 10 μM SFTI-a): significant in comparison with that of untreated wells
- PPI inhibition, number of red dots (ImageJ) ([2]; 50 μM SFTI-a): significant in comparison with that of untreated wells
- decrease in red dots (CD2–CD58 PPI inhibition) ([2]; 100 μM SFTI-a, HFLS-RA cells treated 2 h at 4°C, added over Jurkat cells, 48 h at 37°C, confocal microscopy 60x, vs cells without peptide): significant decrease in red dots; also recorded: decrease in the number of red dots
- PPI inhibition, number of red dots (ImageJ) ([2]; 100 μM SFTI-a): significant in comparison with that of untreated wells
- PPI inhibition at different concentrations (dose dependence) ([2]; different concentrations of SFTI-a (50 nM, 250 nM, 1 μM, 10 μM, 50 μM, 100 μM), HFLS-RA cells treated 2 h at 4°C, co-culture with Jurkat cells 48 h at 37°C, red dots): significant decrease in bright red spots; also recorded: dose-dependent inhibition of the interaction between CD2 and CD58 proteins

B1: CD2: T-cell surface adhesion protein, binding partner of CD58 (protein)
chain: KEITNALETWGALGQDINLDIPSFQMSDDIDDIKWEKTSDKKKIAQFRKEKETFKEKDTYKLFKNGTLKIKHLKTDDQDIYKVSIYDTKGKNVLEKIFDLKIQERVSKPKISWTCINTTLTCEVMNGTDPELNLYQDGKHLKLSQRVITHKWTTSLSAKFKCTAGNKVSKESSVEPVSCPEKGLDIYLIIGICGGGSLLMVFVALLVFYITKRKKQRSRRNDEELETRAHRVATEERGRKPHQIPASTPQNPATSQHPPPPPGHRSQAPSHRPPPPGHRVQHQPQKRPPAPSGTQVHQQKGPPLPRPRVQPKPPHGAAENSLSPSSN
- Kd [6]: 1 to 10 µM
